Laboratory results: patent US8278278B2, “Cell proliferation reducing cancer specific PCNA peptides” (Indiana University Research and Technology Corporation, priority 2008, dated 2012)
Entries after “also recorded” stand apart in the source; their conditions may differ. Read-outs that look alike come from different tables or passages of the source. Non-standard residues stand in square brackets, D forms with d. Residues, ends and D or L forms follow the SMILES beside them. No end group written: not given here. *: point of attachment. FITC = O=C1OC2(c3ccc(O)cc3Oc3cc(O)ccc32)c2ccc(NC(=S)*)cc21

Columns and labels:
U937 cells [1] = details: 100 nM of doxorubicin alone
U937 cells [2] = experiment: cells; details: Homo sapiens, U-937, 24 h
[3] = test system: U937 monocytic lymphoma cells; experiment: Cytotoxicity/apoptosis of R9-linked caPCNA peptides in U937 cells by flow cytometry; type: cell-based; details: 24 hours; for cytotoxic activity / apoptosis: R9 up to 100 μM, caPeptide up to 200 μM; for % cancer cell death: 30 μM of peptide, flow cytometry
Experimental: First, it was tested whether or not the R9 sequence alone had any cytotoxic effect in U937 cells. The U937 cells were treated with up to 100 μM of the R9 sequence for 24 hours.
Once it was established that the R9 sequence promoted cellular uptake of the peptide, increasing amounts of R9-caPep were added to U937 cells to determine if the peptide's uptake would have any cytotoxic effect.
To verify that the cytotoxicity of the R9-caPep was due to the PCNA peptide sequence itself, a scrambled peptide using the same eight amino acids, R9-Scrambled, was prepared (Table 3).
The cancer associated epitope of PCNA is also part of the flexible IDCL region of PCNA. This region of PCNA is considered to have a disordered structure. Disordered regions in proteins are usually associated with protein-to-protein interaction sites. […] To determine which amino acids in the R9-caPep sequence are necessary for binding of the peptide to these proteins, peptide constructs were generated that mutated each amino acid individually to an alanine (Table 3). Each alanine mutant peptide of caPCNA was used to treat U937 cells for 24 hours. An amino acid that is important to protein binding would presumably show decreased cell cytotoxicity when it is substituted with an alanine. Those amino acids which are not critical for binding could be anticipated to show a cytotoxic level similar to that of the unsubstituted peptide. For a comparison of the potential cytotoxic effect of each of the alanine substituted R9-linked caPeptides, U937 cells were treated with 30 μM of peptide. […] It was observed that peptides containing an alanine substituted at position aa126 or aa133 show little cytotoxic activity and therefore were likely important for the peptide's activity.

MCF 7 (breast cancer) = experiment: Cell death by flow cytometry in malignant breast cells; type: cell-based; details: 50 μM, 48 hours
Experimental: The R9-caPeptide was evaluated for cytotoxic effects in non-malignant (MCF 10A) and malignant (MCF 7) breast cells (Table 6). The cells were treated with 50 μM R9-caPeptide for 48 hours and the extent of cell death was evaluated by flow cytometry. […] The significant level of cytotoxicity in breast cancer cells is likely due to enhanced binding interaction of caPeptide with specific DNA repair proteins in these cells, as indicated for example by the observed preferential binding of caPCNA for XPG protein, leading to an inhibition of DNA repair in these cells, and ultimately cell death.

[4] = test system: HCC1937 cells lacking BRCA1; experiment: MTT growth inhibition assay, HCC1937 cells lacking BRCA1; type: cell-based; details: for efficacy in MTT assay compared with the other peptides: HCC1937 and HCC1937+wild-type BRCA1 cells, 24 hours
Experimental: MTT [3-(4,5-dimethylthiazol-2-yl)-2,5-diphenyltetrazolium bromide] assays were conducted with caPeptides at a variety of time points both alone and in combination with a DNA damaging agent e.g., cisplatin in HCC1937 and HCC1937+wild-type BRCA1 cells. The MTT assay is based on the ability of a mitochondrial dehydrogenase enzyme from viable cells to cleave the tetrazolium rings of the pale yellow MTT dye and form dark blue formazan crystals. These formazan crystals are largely impermeable to cell membranes and thus accumulate within healthy cells. Solubilization of the cells by the addition of a detergent results in the liberation and solubilization of the crystals. The number of proliferating cells is directly proportional to the level of formazan product created. The color can then be quantified using a simple colorimetric assay. The results are read on a multiwall scanning spectrophotometer (ELISA reader). The peptides used in these experiments including caPeptide, Q131A ([…] (SEQ ID NO: 5)), and P129A ([…] (SEQ ID NO: 3)) were ordered and obtained from Anaspec (Fremont, Calif.). caPeptide was dissolved in sterile 1× PBS solution to create a 1.5 mM stock concentration. caPeptides with alanine substitutions (e.g., P129A (SEQ ID NO: 3) and Q131A (SEQ ID NO: 5)) were dissolved in sterile 1×PBS solution to create 1.0 mM stock solutions.
MTT assays: The efficacy of caPeptides were tested using the MTT assays: HCC1937 and HCC137+wildtype BRCA1 cells were grown in DMEM 1× (supplemented with 10% fetal bovine serum and 5% penicillin/streptomycin) and were plated at a densities of 5.5×10^3 or 7×10^3, respectively, in 96 well plates (100 μL total volume per well) and allowed to attach overnight in a 37° C. incubator (5% CO2). Then, caPeptide stock solution was diluted to final working concentrations in DMEM 1× (10% fetal bovine serum and 5% penicillin/streptomycin) of 150 μM, 100 μM, 75 μM, 50 μM, and 25 μM. Media was removed from cells and replaced with media containing caPeptide at various concentrations (200 μL total volume per well). Cells were cultured with caPeptide-containing media for 24, 48 or 72 hours. At the appropriate treatment timepoint, 20 μL MTT (5 mg/mL in PBS) reagent was added to each well and plates were incubated for an additional 4 hours. Media/dye solution was then aspirated and 200 μL DMSO was added to each well. Plates were rocked at room temperature for five minutes to dissolve crystals and transferred to an ELISA plate reader. Absorbance was measured at 550 nm. The extent to which caPeptides inhibited cell proliferation was calculated as a percentage of the absorbance in each well containing caPeptide relative to wells containing no caPeptide (negative control) for both HCC1937 and HCC1937+wild-type BRCA1 cells. […]

U937 cells [5] = experiment: Cellular uptake and nuclear localization by fluorescence microscopy; type: cell-based; details: 10 μM, 24 hours, DAPI overlay
Experimental: To test cellular uptake and nuclear localization of R9-caPep, an N-terminal fluorescein isothiocyanate (FITC) residue was attached to allow microscopic visualization of the peptide's cellular location. The U937 cells were treated with 10 μM of FITC-R9-caPep for 24 hours. The cells were then collected onto a poly-L-lysine coated slide by cytospin and mounted with a media containing the DNA staining dye 4′-6-Diamidino-2-phenylindole (DAPI), which complexes with double stranded DNA and indicates the location of the nucleus. A Leica DM500 fluorescent microscope was used to visualize the staining.

[6] = test system: HCC1937+wild-type BRCA1 cells; experiment: MTT growth inhibition assay, HCC1937+wild-type BRCA1 cells; type: cell-based
Experimental: As a genetically matched control, wild-type BRCA1 has been transduced into HCC1937 cells (referred to as HCC1937+wild-type BRCA1). HCC1937+wild-type BRCA1 cells were selected for maintenance of the vector using 1 μg/mL puromycin. All cells in these assays were used at passage numbers <25.
MTT [3-(4,5-dimethylthiazol-2-yl)-2,5-diphenyltetrazolium bromide] assays were conducted with caPeptides at a variety of time points both alone and in combination with a DNA damaging agent e.g., cisplatin in HCC1937 and HCC1937+wild-type BRCA1 cells. […] The color can then be quantified using a simple colorimetric assay. The results are read on a multiwall scanning spectrophotometer (ELISA reader). […]
MTT assays: The efficacy of caPeptides were tested using the MTT assays: HCC1937 and HCC137+wildtype BRCA1 cells were grown in DMEM 1× (supplemented with 10% fetal bovine serum and 5% penicillin/streptomycin) and were plated at a densities of 5.5×10^3 or 7×10^3, respectively, in 96 well plates (100 μL total volume per well) and allowed to attach overnight in a 37° C. incubator (5% CO2). […] Plates were rocked at room temperature for five minutes to dissolve crystals and transferred to an ELISA plate reader. Absorbance was measured at 550 nm. […]

COc1cccc2c1C(=O)c1c(O)c3c(c(O)c1C2=O)C[C@@](O)(C(=O)CO)C[C@@H]3O[C@H]1C[C@H](N)[C@H](O)[C@H](C)O1 [doxorubicin]
cell death (U937 cells [1]): 30% | IC50 (U937 cells [2]; read-out: IC50 of doxorubicin, U937 cells, 24 hours, doxorubicin alone): ~140 nM | IC50 (U937 cells [2]; read-out: IC50 of doxorubicin, U937 cells, 24 hours, with 25 μM of R9-caPep): ~110 nM

CC[C@H](C)[C@H](NC(=O)CNC(=O)[C@@H](N)CC(C)C)C(=O)N1CCC[C@H]1C(=O)N[C@@H](CCC(=O)O)C(=O)N[C@@H](CCC(N)=O)C(=O)N[C@@H](CCC(=O)O)C(=O)N[C@@H](Cc1ccc(O)cc1)C(=O)O [caPeptide] (H-LGIPEQEY-OH)
cytotoxic activity / apoptosis [3]: did not have any cytotoxic activity; also recorded: no increase in apoptosis

RRRRRRRRRCCLGAPEQEY [A3-sub. Peptide]
% cancer cell death [3]: 21 ± 12%

RRRRRRRRRCCLGIAEQEY [A4-sub. Peptide]
% cancer cell death [3]: 80 ± 7%

CC[C@H](C)[C@H](NC(=O)CNC(=O)[C@H](CC(C)C)NC(=O)[C@H](CS)NC(=O)[C@H](CS)NC(=O)[C@@H](CCCNC(=N)N)NC(=O)[C@@H](CCCNC(=N)N)NC(=O)[C@@H](CCCNC(=N)N)NC(=O)[C@@H](CCCNC(=N)N)NC(=O)[C@@H](CCCNC(=N)N)NC(=O)[C@@H](CCCNC(=N)N)NC(=O)[C@@H](CCCNC(=N)N)NC(=O)[C@@H](CCCNC(=N)N)NC(=O)[C@H](N)CCCNC(=N)N)C(=O)N1CCC[C@H]1C(=O)N[C@@H](CCC(=O)O)C(=O)N[C@@H](CCC(N)=O)C(=O)N[C@@H](CCC(=O)O)C(=O)N[C@@H](Cc1ccc(O)cc1)C(=O)O [R9-caPep]
cytotoxicity for malignant breast cells (MCF7) relative to non-malignant breast cells (MCF10A) (MCF 7 (breast cancer)): approximately five times more cytotoxic

LGIAEQEY [P129A]
efficacy in MTT assay compared with the other peptides [4]: enhanced efficacy in comparison to wild-type peptides

RRRRRRRRRCCLGIPEQAY [A7-sub. Peptide]
% cancer cell death [3]: 88 ± 4%

LGIPEAEY [Q131A]
efficacy in MTT assay compared with the other peptides [4]: enhanced efficacy in comparison to wild-type peptides; also recorded: more effective of these peptides tested

RRRRRRRRRCCLGIPAQEY [A5-sub. Peptide]
% cancer cell death [3]: 45 ± 14%

RRRRRRRRRCCLAIPEQEY [A2-sub. Peptide]
% cancer cell death [3]: 47 ± 13%

RRRRRRRRRCCAGIPEQEY [A1-sub. Peptide]
% cancer cell death [3]: 8 ± 9%

RRRRRRRRR [R9, reference compound]
cytotoxic activity / apoptosis [3]: did not promote apoptosis; also recorded: did not cause an increase apoptosis

RRRRRRRRRCCLGIPEAEY [A6-sub. Peptide]
% cancer cell death [3]: 93 ± 7%

RRRRRRRRRCCLGIPEQEA [A8-sub. Peptide]
% cancer cell death [3]: 7 ± 6%

FITC-RRRRRRRRRCCLGIPEQEY ({FITC}-[dR][dR][dR][dR][dR][dR][dR][dR][dR]CCLGIPEQEY; cysteine pairing not given here) [FITC-R9-caPep, R9-caPep with an N-terminal fluorescein isothiocyanate (FITC) residue]
cellular uptake and nuclear localization (U937 cells [5]): internalized by the cells and was accessible to the nucleus

N.N.[Cl][Pt][Cl] [cisplatin, reference compound]
IC50 ([4]; HCC1937 cells lacking BRCA1, with R9-PCNA peptide 60 μM, read-out: IC50 value for R9-PCNA peptide (60 μM)+cisplatin): ~20 µM | sensitivity of the cells to cisplatin ([4]; HCC1937 cells, cisplatin alone): relatively resistant | sensitivity of the cells to cisplatin ([6]; HCC1937+wild-type BRCA1 cells, cisplatin alone): relatively resistant | IC50 ([6]; HCC1937 cells with BRCA1, with R9-PCNA peptide 60 μM, read-out: IC50 value for R9-PCNA peptide (60 μM)+cisplatin): ~100 µM
